Reference: paper PMC5691699, “Processing ‘Ataulfo’ Mango into Juice Preserves the Bioavailability and Antioxidant Capacity of Its Phenolic Compounds” (Nutrients, 2017)
Where two headings read alike, the source gives them in different places.

How the values were obtained:
clinical = conditions: for AUC/Dose: dose-adjusted AUC 0 to 6 h, n = 12
Excerpt: Phenolics in plasma were quantified according to the method of Chen, Milbury, Lapsley, and Blumberg. […] Subsequently, phenolics were extracted with acetonitrile. After centrifugation, the supernatant was removed, dried with nitrogen gas, and reconstituted in the aqueous HPLC mobile phase, filtered using Ultrafree Durapore Centrifugal filter devices (0.22, Merck Millipore, Billerica, MA, USA), and injected into the HPLC- ECD system, using previously optimized chromatographic conditions. The mobile phases were 75 mM citric acid and 25 mM ammonium acetate in 90% water/10% acetonitrile (A), and 75 mM citric acid and 25 mM ammonium acetate in 50% water/50% acetonitrile (B).
Results are expressed as mean ± standard deviation (SD). The maximum concentration (Cmax) in plasma and the time to reach Cmax (Tmax) were visually identified. The area under the concentration-time curve (AUC) of plasma phenolics was calculated using the linear trapezoidal integration equation [24]. The differences in Cmax, Tmax, and AUC of phenolics between mango flesh and juice treatments were examined using an analysis of covariance, with time 0 values as the covariant, followed by the Tukey-Kramer multi-comparison test. The Number Cruncher Statistical System version 6.0 software (NCSS, NCSS LLC, Kaysville, UT, USA) was used to perform all statistical analyses.

[1] = Urinary excretion (0–24 h) of phenolic compounds after 'Ataulfo' mango flesh or juice, HPLC-ECD; conditions: for detection in urine: after mango flesh and juice consumption, 0–24 h; for urinary excretion, juice group versus flesh group: at 0–4 and 4–8 h, normalized to creatinine
[2] = in vivo
[3] = after mango flesh and juice consumption, 0–6 h
[4] = male, human, plasma, oral, 500 g, AUC, plasma, time 0 to 6 h, after 500 g mango flesh, n = 12, mean ± SD
[5] = male, human, plasma, oral, 500 g, Cmax, plasma, after 500 g mango flesh, healthy men, n = 12, mean ± SD
[6] = male, human, plasma, oral, 500 g, Tmax, plasma, after 500 g mango flesh, healthy men, n = 12, mean ± SD
[7] = male, human, plasma, oral, 721 g, AUC, plasma, time 0 to 6 h, after 721 g mango juice, n = 12, mean ± SD
[8] = male, human, plasma, oral, 721 g, Cmax, plasma, after 721 g mango juice, healthy men, n = 12, mean ± SD
[9] = male, human, plasma, oral, 721 g, Tmax, plasma, after 721 g mango juice, healthy men, n = 12, mean ± SD
[10] = plasma, after 500 g mango flesh
[11] = plasma, after 721 g mango juice
[12] = plasma, after 500 g mango flesh, healthy men, n = 12, mean ± SD
[13] = plasma, after 721 g mango juice, healthy men, n = 12, mean ± SD

O=C(O)c1cc(O)c(O)c(O)c1 [Gallic acid, gallic acid]
AUC (clinical; male, human, in vivo): 38.5 ± 14.5 ng·h/mL | Cmax (clinical; male, human, in vivo): 7.9 ± 4.7 ng/mL | AUC (clinical; male, human, in vivo, AUC): 36.9 ± 24.3 ng·h/mL | Cmax (clinical; male, human, in vivo, Cmax): 8.7 ± 1.7 ng/mL | Tmax (clinical; male, human, in vivo, Tmax, plasma, after 500 g mango flesh, healthy men, n = 12, mean ± SD): 4.4 ± 1.1 h | Tmax (clinical; male, human, in vivo, Tmax, plasma, after 721 g mango juice, healthy men, n = 12, mean ± SD): 3.5 ± 1 h

COc1cc(C(=O)O)ccc1O [Vanillic acid, vanillic acid]
detection in urine [1]: detected in urine | urinary AUC/dose excretion ([1]; compared with the other urinary phenolics, values higher in the juice group): Higher | detection in plasma (clinical; [3]): not in plasma

O=C(O)c1ccc(O)c(O)c1 [Protocatechuic acid, protocatechuic acid]
detection in urine [1]: not in urine | detection in plasma (clinical; [3]): detected in plasma | AUC (clinical; [4]): 141 ± 73.9 ng·h/mL | Cmax (clinical; [5]): 30.8 ± 13.3 ng/mL | Tmax (clinical; [6]): 3.5 ± 2 h | AUC (clinical; [7]): 109 ± 5.4 ng·h/mL | Cmax (clinical; [8]): 34.5 ± 18 ng/mL | Tmax (clinical; [9]): 3.7 ± 1.7 h | greater absorption from mango flesh (clinical; mango flesh compared with juice): 49% | AUC/Dose (clinical; [10]): 344.8 ± 138.3 (ng h/mL)/mg | AUC/Dose (clinical; [11]): 204.90 ± 9.9 (ng h/mL)/mg

O=C(O)/C=C/c1ccc(O)cc1 [p-coumaric acid]
detection in urine [1]: detected in urine | urinary excretion, juice group versus flesh group [1]: significantly higher

COc1cc(/C=C/C(=O)O)ccc1O [Ferulic acid, ferulic acid]
detection in urine [1]: detected in urine | urinary excretion, juice group versus flesh group [1]: significantly higher | detection in plasma (clinical; [3]): detected in plasma | Cmax (clinical; [12]): 16.5 ± 3.9 ng/mL | Tmax (clinical; [12]): 2.8 ± 2.1 h | Cmax (clinical; [13]): 32.7 ± 10.9 ng/mL | Tmax (clinical; [13]): 2.3 ± 1.5 h | AUC/Dose (clinical; [10]): 31.0 ± 9.63 (ng h/mL)/mg | AUC/Dose (clinical; [11]): 83.8 ± 30.2 (ng h/mL)/mg | AUC (clinical; plasma, time 0 to 6 h, after 500 g mango flesh, n = 12, mean ± SD): 60.2 ± 22.7 ng·h/mL | AUC (clinical; plasma, time 0 to 6 h, after 721 g mango juice, n = 12, mean ± SD): 133.4 ± 47.7 ng·h/mL

Oc1cccc(O)c1O [Pyrogallol, pyrogallol]
detection in urine [1]: found in urine

COc1cc(/C=C/C(=O)O)cc(OC)c1O [sinapic acid]
detection in plasma (clinical; in vivo): not in plasma | urinary AUC/dose excretion ([2]; human): Higher | detection in urine [2]: detected in urine

O=C(/C=C/c1ccc(O)c(O)c1)O[C@@H]1C[C@](O)(C(=O)O)C[C@@H](O)[C@H]1O [Chlorogenic acid, chlorogenic acid]
detection in plasma (clinical; [3]): detected in plasma | AUC (clinical; [4]): 209 ± 24.5 ng·h/mL | Cmax (clinical; [5]): 49.7 ± 7.3 ng/mL | Tmax (clinical; [6]): 3.5 ± 1.4 h | AUC (clinical; [7]): 367 ± 131 ng·h/mL | Cmax (clinical; [8]): 109.7 ± 0.26 ng/mL | Tmax (clinical; [9]): 2.5 ± 1.8 h | higher absorption from mango juice (clinical; mango juice compared with flesh): 62% | AUC/Dose (clinical; [10]): 11.5 ± 1.78 (ng h/mL)/mg | AUC/Dose (clinical; [11]): 50.12 ± 15.5 (ng h/mL)/mg

O=C(O)c1cc(O)ccc1O [Gentisic acid, gentisic acid]
detection in urine [1]: not in urine | detection in plasma (clinical; [3]): detected in plasma | AUC (clinical; male, human, in vivo): 50.9 ± 11.0 ng·h/mL | Cmax (clinical; male, human, in vivo): 12.2 ± 0.2 ng/mL | Tmax (clinical; male, human, in vivo): 2.8 ± 1.9 h | AUC (clinical; male, human, in vivo, AUC): 53.1 ± 8.3 ng·h/mL | Cmax (clinical; male, human, in vivo, Cmax): 11.8 ± 2.1 ng/mL | Tmax (clinical; male, human, in vivo, Tmax): 4 ± 1.4 h | AUC/Dose (clinical; [10]): 221.2 ± 34.0 (ng h/mL)/mg | AUC/Dose (clinical; [11]): 282.7 ± 59.1 (ng h/mL)/mg
